Data: publication PMC12406203 (Journal of Medicinal Chemistry, 2025)
“And” between values parts separate entries of the source, which are not always exact repeats. Equal values may be shown once.

Legend:
human p38α MAPK = human p38α MAPK (Homo sapiens, UniProt Q16539); assay: biochemical
Method: The inhibitory activities against human p38α MAPK were evaluated using the commercially available ADP-Glo Kinase Assay (Promega, Inc., USA).
For the reference sample, 1% [v/v] DMSO replaced the inhibitor solution. […] The enzyme reaction was started with the addition of the enzyme solution. The DMSO concentration in the test solution was maintained at 1% [v/v]. The plate was incubated for 60 min. Then 5 μL of ADP-Glo reagent was added, followed by a 40 min incubation at room temperature. […] All incubations were performed at room temperature. The RA and IC50 values were calculated as described above (ChEs inhibitory potency).

[1] = system: scopolamine-induced cognitive deficits in mice; assay: Novel object recognition task, scopolamine-induced amnesia; assay type: in vivo; settings: for efficacy in NOR task: 5 mg/kg i.p., scopolamine model; for preference for the novel object (NOR task): 10 mg/kg i.p., vs mice treated with scopolamine alone
Description: In the scopolamine model, the PA and NOR tasks were used for dose selection for further testing.
The mice had unlimited access to food and water prior to the experiment. Specified conditions for the maintenance of mice were ensured throughout the experiment, including tree bedding (Transwior, Poland) and cage enrichment (tunnels, nesting material, wooden igloos, etc.). For behavioral tests, the mice were selected randomly; each group consisted of 7–10 mice. […] The procedures for maintenance and treatment of laboratory animals were approved by the first Local Ethics Committee in Krakow (Approval No. 645/2022, 760/2023, and 829/2024 and the treatment of animals was in full accordance with ethical standards laid down in respective Polish and EU regulations (Directive 2010/63/EU).
Scopolamine hydrobromide (Sigma-Aldrich, Poland) at the dose of 1 mg/kg was used to induce learning and memory deficits. For the in vivo tests, scopolamine was prepared in distilled water (Polfa Kutno, Poland) and was administered subcutaneously (s.c.) 30 min before behavioral tests during the acquisition (training) trial of PA and NOR tasks. […] They were administered intraperitoneally (i.p.) 60 min before the acquisition trial of the PA, NOR, and MWM tasks.
The experiment was conducted in opaque black boxes with dimensions of 50 × 50 × 50 cm. The 3 day procedure consists of habituation to the test arena (without any objects) for 10 min on the first day (T0), a training trial (T1), and a testing trial (T2) separated by a 24 h intertrial interval. During T1 (familiarization trial), two identical objects (A and B) were presented in the opposite corners of the arena, approximately 5 cm from its walls. During T2 (recognition trial), one of the objects (B) was replaced by a novel object (C), so that the animals were presented with A (familiar) and C (novel) objects. Both T1 and T2 trials lasted for 10 min, and after each trial, the animals returned to their home cages. White plastic round containers (height 5 cm, diameter 5 cm) attached to the ground with double-sided tape were used as the A, B objects, and green cuboids of similar height were used as object C. The objects were stable enough so that the animals could not displace them. The sequence of presentations and the location of the objects were randomly assigned to each mouse. The animals explored the objects by looking, licking, sniffing, or touching them while sniffing, but not when leaning against, standing, or sitting on the objects. Any mouse exploring the two objects for less than 5 s within the 10 min duration of T1 or T2 was eliminated from the study. An experimenter, blind to the drug treatment, measured the exploration time of the objects.

hAChE = hAChE (Homo sapiens, UniProt P22303); settings: for AChE inhibition: at a concentration of 100 μM; for hAChE RA at 100 μM: residual activity at 100 μM, mean ± SD, one experiment in triplicate
Chain of hAChE (P22303 32-614): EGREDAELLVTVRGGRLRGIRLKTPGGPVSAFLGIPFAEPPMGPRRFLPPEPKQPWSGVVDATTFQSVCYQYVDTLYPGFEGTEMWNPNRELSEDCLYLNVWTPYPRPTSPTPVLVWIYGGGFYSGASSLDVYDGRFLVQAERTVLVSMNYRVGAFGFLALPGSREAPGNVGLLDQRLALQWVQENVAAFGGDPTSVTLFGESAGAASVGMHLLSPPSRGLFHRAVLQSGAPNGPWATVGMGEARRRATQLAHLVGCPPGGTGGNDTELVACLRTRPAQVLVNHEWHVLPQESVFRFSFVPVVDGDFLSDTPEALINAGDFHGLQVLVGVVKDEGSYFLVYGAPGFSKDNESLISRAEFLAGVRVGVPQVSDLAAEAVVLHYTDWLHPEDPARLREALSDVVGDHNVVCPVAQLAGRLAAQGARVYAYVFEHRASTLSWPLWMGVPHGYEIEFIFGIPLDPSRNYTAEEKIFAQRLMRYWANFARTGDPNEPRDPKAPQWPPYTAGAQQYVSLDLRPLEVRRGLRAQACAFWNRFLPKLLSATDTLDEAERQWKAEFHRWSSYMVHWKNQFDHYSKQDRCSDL
Method: The inhibitory potencies of the compounds against the ChEs were determined using the method of Ellman. […] The final content of DMSO was always 1% [v/v]. […] The initial velocities in the presence (v i ) and absence (v 0) of the test compounds were calculated. The inhibitory potencies were expressed as the residual activities, according to RA = (v i – b)/(v 0 – b), where b is the blank value using phosphate buffer without ChEs. For IC50 determinations, at least seven different concentrations for each compound were used. The IC50 values were obtained by plotting the residual ChE activities against the applied inhibitor concentrations, with the experimental data fitted to a four-parameter logistic function (GraphPad Prism 10.0).

panel of 103 kinases = assay: KINOMEscan kinase selectivity profiling (whole panel); assay type: binding; settings: 10 and 1 μM
Method: The kinase inhibition profile of compounds 94 and 95 was assessed against 103 protein kinases by Eurofins DiscoverX, LLC., using the KINOMEscan assay. Kinase-tagged T7 phage strains were grown in parallel in 24-well blocks in an E. coli host derived from the BL21 strain. E. coli were grown to log-phase and infected with T7 phage from a frozen stock (multiplicity of infection = 0.4) and incubated with shaking at 32 °C until lysis (90–150 min). The lysates were centrifuged (6000g) and filtered (0.2 μm) to remove cell debris. The remaining kinases were produced in HEK-293 cells and subsequently tagged with DNA for qPCR detection. […] The liganded beads were blocked with excess biotin and washed with blocking buffer (SeaBlock (Pierce), 1% BSA, 0.05% Tween 20, 1 mM DTT) to remove unbound ligand and to reduce nonspecific phage binding. […] Test compounds were prepared as 100× stocks in 100% DMSO and directly diluted into the assay. All reactions were performed in polypropylene 384-well plates in a final volume of 0.02 mL. […] The kinase concentration in the eluates was measured by qPCR.
The compound(s) were screened at the concentration(s) requested, and results for primary screen binding interactions are reported as RA (%), where lower numbers indicate stronger hits in the matrix. RA=(testcompoundsignal−PCsignal/NCsignal−PCsignal)×100
Test compound = Cpd. […]

[2] = system: RSK2 (Kin.Dom.1-N-terminal)
LPS-treated mice = assay: Morris water maze task, LPS model of neuroinflammation; assay type: in vivo; settings: 10 mg/kg i.p.; for escape latency, acquisition phase (days 1–6) of MWM: from day 2 (94) or day 3 (95) to day 6, vs LPS alone
Method: The compounds were administered for 10 consecutive days, and on the last 6 days of their administration, LPS was also administered intraperitoneally 5 h before the test compounds. On these 6 days, the acquisition phase of the MWM task was performed. One day later, the retention, drug-off trial of the MWM task was carried out.
In the LPS model adult male C57BL/6J mice (Animal Breeding Farm of the Faculty of Pharmacy, Jagiellonian University Medical College) of similar weight and age were used. […] The mice had unlimited access to food and water prior to the experiment. Specified conditions for the maintenance of mice were ensured throughout the experiment, including tree bedding (Transwior, Poland) and cage enrichment (tunnels, nesting material, wooden igloos, etc.). For behavioral tests, the mice were selected randomly; each group consisted of 7–10 mice. […] After in vivo tests, the animals were immediately euthanized, and their tissues were collected and stored for further ex vivo testing.
LPS (Lipopolysaccharide from Escherichia coli O111:B4, Sigma-Aldrich, Poland) was used to induce neuroinflammation in mice. […] They were administered intraperitoneally (i.p.) 60 min before the acquisition trial of the PA, NOR, and MWM tasks. […] In the rotarod, locomotor activity, and MWM tests, only one dose effective in the scopolamine model of amnesia was evaluated.
The Morris water maze is a circular, plastic, and gray-painted pool (120 cm in diameter and 60 cm in height), filled with water (up to about 48 cm below the edge to prevent an animal from jumping out), maintained at 23 ± 1 °C. The pool was divided into four equal quadrants (compass locations: NE, NW, SE, SW) by a computerized video tracking system (SMART, ver. 3.0; Panlab, Spain). An escape platform (11 cm in diameter and 47 cm in height) at a fixed location (the center of the NW quadrant, i.e., the target quadrant) was made of transparent Plexiglas, being invisible to the swimming animal, and was immersed 1 cm under the surface of water. The maze was lighted with an intensity of 45 lx. […] The time taken to reach the hidden platform (escape latency) on days 1–6 was recorded for each mouse and analyzed. Each animal was released from a different starting point and was allowed to swim for 60 s. […] On the seventh day (a drug-off trial conducted 24 h after the last training trial), the platform was removed from the pool, and a probe trial was performed (without drug treatmentassessment of memory retention).

hBChE in SH-SY5Y cells = molecular target: T1, hBChE in SH-SY5Y cells (Homo sapiens, UniProt P06276); assay: hBChE inhibition assay in SH-SY5Y cells; assay type: cell-based; settings: 10 and 1 μM; compared with control ethopropazine
T1 construct: endogenous in cells; host or cells: SH-SY5Y human neuroblastoma cells
T1 sequence (P06276 29-602): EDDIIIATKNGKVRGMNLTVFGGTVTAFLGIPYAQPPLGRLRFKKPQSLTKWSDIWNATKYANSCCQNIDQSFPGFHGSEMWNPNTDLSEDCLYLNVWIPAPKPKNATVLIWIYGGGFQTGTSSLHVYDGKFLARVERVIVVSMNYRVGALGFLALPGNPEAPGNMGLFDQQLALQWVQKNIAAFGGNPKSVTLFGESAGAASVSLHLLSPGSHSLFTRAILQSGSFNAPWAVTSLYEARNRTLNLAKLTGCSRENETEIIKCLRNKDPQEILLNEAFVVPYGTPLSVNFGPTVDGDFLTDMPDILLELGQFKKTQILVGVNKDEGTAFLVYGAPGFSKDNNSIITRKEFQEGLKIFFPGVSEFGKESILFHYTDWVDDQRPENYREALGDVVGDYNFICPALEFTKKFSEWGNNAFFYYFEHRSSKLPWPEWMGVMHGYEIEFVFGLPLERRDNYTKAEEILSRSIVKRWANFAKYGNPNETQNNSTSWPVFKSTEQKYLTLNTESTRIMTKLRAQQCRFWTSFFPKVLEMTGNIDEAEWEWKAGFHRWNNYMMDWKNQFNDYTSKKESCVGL
Method: hBChE activity in live whole SH-SY5Y cells was measured by the modified procedure of Onder and colleagues. Briefly, after centrifugation, the complete medium was removed and cells were suspended in PBS warmed to 37 °C. 50 μL of this suspension was added to a 96-well plate so that each well contained approximately 360,000 cells. 81 μL of 0.5 mM 5,5′-dithiobis (2-nitrobenzoic acid) in 0.1 M potassium phosphate buffer (pH 7.0) was added, followed by 2 μL of DMSO solutions of compounds 94, 95, or ethopropazine (positive control). The reaction was initiated by the addition of 67 μL of 1 mM acetylthiocholine. The total reagent volume in each well was 200 μL. The microplate was covered with a lid to minimize evaporation while absorbance at 412 nm was recorded over a period of 120 min with a 30 s interval on a Tecan Spark microplate reader (Tecan Austria GmbH, Salzburg, Austria) set to 24 °C. Autohydrolysis rates of butyrylthiocholine were measured in wells that contained all reagents + PBS with no cells. The residual activity of hBChE was then calculated by the protocol described above.

[3] = p38α MAPK IC50, IC50 expressed as concentration in ng/mL
[4] = p38α MAPK IC50 ± SEM, two independent experiments, each in triplicate

Chain of human p38α MAPK (Q16539 whole entry): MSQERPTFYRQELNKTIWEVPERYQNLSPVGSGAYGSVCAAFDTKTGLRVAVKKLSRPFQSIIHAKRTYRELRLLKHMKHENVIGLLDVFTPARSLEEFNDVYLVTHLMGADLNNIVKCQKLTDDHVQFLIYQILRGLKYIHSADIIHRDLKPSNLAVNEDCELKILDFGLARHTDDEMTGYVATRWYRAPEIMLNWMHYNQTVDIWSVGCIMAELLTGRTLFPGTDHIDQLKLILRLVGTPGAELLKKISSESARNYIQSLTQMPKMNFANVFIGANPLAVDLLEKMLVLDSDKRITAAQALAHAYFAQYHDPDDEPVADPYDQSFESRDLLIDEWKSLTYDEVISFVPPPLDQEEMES

## CC(C)Cn1ncc2cc(Cc3ccc(F)cc3F)c(C(=O)NCCN(C)C)cc21 [Compound 94, 5-(2,4-Difluorobenzyl)-N-(2-(dimethylamino)ethyl)-1-isobutyl-1H-indazole-6-carboxamide]
PIK3CG
  RA @ 1000nM: 86%
  RA @ 10000nM: 85%
ABL1-phosphorylated
  RA @ 1000nM: 79%
  RA @ 10000nM: 53%
Human p38α MAPK; [3]
  IC50: 376 nM
Human p38α MAPK; [4]
  IC50: 377 ± 123 nM
[1]
  efficacy in NOR task: statistically ineffective
  preference for the novel object (NOR task): statistically significant preference for the novel object
p38δ
  RA @ 1000nM: 97%
  RA @ 10000nM: 100%
hAChE
  AChE inhibition: did not inhibit AChE
  hAChE RA at 100 μM: 69.0% and 69 ± 4%
ADCK3
  RA @ 1000nM: 100%
  RA @ 10000nM: 100%
VEGFR2
  RA @ 1000nM: 100%
  RA @ 10000nM: 100%
PAK2
  RA @ 1000nM: 100%
  RA @ 10000nM: 97%
Panel of 103 kinases
  kinase selectivity: high selectivity for p38α MAPK
RIOK2
  RA @ 1000nM: 85%
  RA @ 10000nM: 92%
TIE2
  RA @ 1000nM: 100%
  RA @ 10000nM: 100%
BRAF
  RA @ 1000nM: 100%
  RA @ 10000nM: 100%
[2]
  RA @ 1000nM: 86%
  RA @ 10000nM: 65%
RAF1
  RA @ 1000nM: 100%
  RA @ 10000nM: 100%
MARK3
  RA @ 1000nM: 100%
  RA @ 10000nM: 100%
ROCK2
  RA @ 1000nM: 87%
  RA @ 10000nM: 96%
TRKA
  RA @ 1000nM: 98%
  RA @ 10000nM: 94%
ERK1
  RA @ 1000nM: 87%
  RA @ 10000nM: 87%
MAPKAPK2
  RA @ 1000nM: 100%
  RA @ 10000nM: 84%
MAPKAPK5
  RA @ 1000nM: 100%
  RA @ 10000nM: 100%
hBChE
  IC50: 652 nM and 270 ng/mL
DYRK1B
  RA @ 1000nM: 100%
  RA @ 10000nM: 85%
p38γ
  RA @ 1000nM: 93%
  RA @ 10000nM: 94%
FGFR3
  RA @ 1000nM: 100%
  RA @ 10000nM: 100%
LPS-treated mice
  escape latency, acquisition phase (days 1–6) of MWM: statistically significant decrease in escape latency from day 2
ERK 2
  RA @ 1000nM: 100%
  RA @ 10000nM: 98%
AKT1
  RA @ 1000nM: 100%
  RA @ 10000nM: 75%
INSR
  RA @ 1000nM: 81%
  RA @ 10000nM: 90%
PRKCE
  RA @ 1000nM: 80%
  RA @ 10000nM: 80%
hBChE in SH-SY5Y cells
  hBChE inhibition in SH-SY5Y human neuroblastoma cell line: outperformed the control ethopropazine

## CN(C)CCNC(=O)c1cc2c(cnn2CC2CCCCC2)cc1Cc1ccc(F)cc1F [Compound 95, 1-(Cyclohexylmethyl)-5-(2,4-difluorobenzyl)-N-(2-(dimethylamino)ethyl)-1H-indazole-6-carboxamide]
PIK3CG
  RA @ 1000nM: 92%
  RA @ 10000nM: 97%
ABL1-phosphorylated
  RA @ 1000nM: 81%
  RA @ 10000nM: 85%
Human p38α MAPK; [3]
  IC50: 191 nM
Human p38α MAPK; [4]
  IC50: 191 ± 21 nM
[1]
  efficacy in NOR task: statistically ineffective
  preference for the novel object (NOR task): statistically significant preference for the novel object
p38δ
  RA @ 1000nM: 100%
  RA @ 10000nM: 100%
hAChE
  AChE inhibition: did not inhibit AChE
  hAChE RA at 100 μM: 53.4% and 53 ± 1% and 53.4 ± 0.8%
ADCK3
  RA @ 1000nM: 100%
  RA @ 10000nM: 81%
VEGFR2
  RA @ 1000nM: 100%
  RA @ 10000nM: 100%
PAK2
  RA @ 1000nM: 100%
  RA @ 10000nM: 95%
Panel of 103 kinases
  kinase selectivity: high selectivity for p38α MAPK
RIOK2
  RA @ 1000nM: 88%
  RA @ 10000nM: 81%
TIE2
  RA @ 1000nM: 90%
  RA @ 10000nM: 100%
BRAF
  RA @ 1000nM: 100%
  RA @ 10000nM: 100%
[2]
  RA @ 1000nM: 94%
  RA @ 10000nM: 94%
RAF1
  RA @ 1000nM: 100%
  RA @ 10000nM: 100%
MARK3
  RA @ 1000nM: 79%
  RA @ 10000nM: 86%
ROCK2
  RA @ 1000nM: 83%
  RA @ 10000nM: 100%
TRKA
  RA @ 1000nM: 100%
  RA @ 10000nM: 92%
ERK1
  RA @ 1000nM: 96%
  RA @ 10000nM: 90%
MAPKAPK2
  RA @ 1000nM: 100%
  RA @ 10000nM: 100%
MAPKAPK5
  RA @ 1000nM: 100%
  RA @ 10000nM: 100%
hBChE
  IC50: 772 nM and 350 ng/mL
DYRK1B
  RA @ 1000nM: 95%
  RA @ 10000nM: 100%
p38γ
  RA @ 1000nM: 100%
  RA @ 10000nM: 99%
FGFR3
  RA @ 1000nM: 100%
  RA @ 10000nM: 92%
LPS-treated mice
  escape latency, acquisition phase (days 1–6) of MWM: statistically significant decrease in escape latency
LPS-treated mice; vs LPS-treated control, p < 0.05
  latency to NW zone entry (MWM day 7, drug-off): statistically significant difference
ERK 2
  RA @ 1000nM: 100%
  RA @ 10000nM: 100%
AKT1
  RA @ 1000nM: 100%
  RA @ 10000nM: 100%
INSR
  RA @ 1000nM: 84%
  RA @ 10000nM: 81%
PRKCE
  RA @ 1000nM: 79%
  RA @ 10000nM: 76%
hBChE in SH-SY5Y cells
  hBChE inhibition in SH-SY5Y human neuroblastoma cell line: outperformed the control ethopropazine
